Measured values from patent publication US10308652B2, “Tricyclic heterocyclic compounds useful as inhibitors of TNF” (BRISTOL-MYERS SQUIBB COMPANY, priority 2015, dated 2019).

What follows are compounds tested against TNFα (Homo sapiens (Human), UniProt P01375) (assay: TNF induced HEK-Blue assay). Details: TNFα 0.5 ng/ml; HEK-Blue-CD40L cells, NF-κB-driven secreted alkaline phosphatase reporter; 18 h.
Assay type: cell-based
Procedure: TNF or CD40L-induced HEK-Blue Assay Test compounds serially diluted in DMSO were plated in an assay plate (Labcyte, Cat. #LP-0200) at final concentrations ranging from 0.004 μM to 25μM. TNFα (final concentration 0.5 ng/ml) or CD4OL (final concentration 30 ng/ml) in assay buffer [DMEM, 4.5 g/l glucose (Gibco, Cat. 21063-029), 10% FBS (Sigma, F4135), 1% Penicillin-Streptomycin (Gibco, Cat. 15140-122), 1% Anti-Anti (Gibco, Cat. 15240-112) and 2 mM L-glutamine (Gibco, Cat. 25030-081)] was then added to the assay plate. After a 30 minute pre-incubation at 37° C. and 5% CO2, HEK-Blue-CD40L cells (InvivoGen, Cat. Code hkb-cd40) containing a NF-κB-driven secreted alkaline phosphatase reporter gene were seeded into the assay plate at a density of 20,000 cells per well. This plate was then incubated for 18 h at 37° C. and 5% CO2. Secreted alkaline phosphatase expression was measured using QUANTI-Blue (InvivoGen, Cat. Code rep-qb1) according to manufacturer's specifications and the assay plate was read on a PerkinElmer Envision at 620 nm. Inhibition data for the test compound over a range of concentrations was plotted as percentage inhibition of the test compound (100%=maximum inhibition). IC50 values were determined after correcting for background [(sample read−mean of low control)/(mean of high control−mean of low control)] where by the low control is DMSO without stimulation and high control is DMSO with stimulation. The IC50 is defined as the concentration of test compound which produces 50% inhibition and was quantified using the 4 parameter logistic equation to fit the data.

Chain of TNFα (P01375 77-233): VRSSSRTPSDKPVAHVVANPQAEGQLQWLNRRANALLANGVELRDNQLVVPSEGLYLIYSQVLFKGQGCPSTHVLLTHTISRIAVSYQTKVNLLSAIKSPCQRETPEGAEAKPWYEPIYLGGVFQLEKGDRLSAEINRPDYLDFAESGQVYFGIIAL

Structure (SMILES)	IC50 [µM]
CNS(=O)(=O)c1ccc(-c2ccc3nc4c(n3n2)[C@@H](c2ccccc2OC(F)F)NC[C@H]4O)cc1 (racemic) [Example 40, (+/−)-cis-4-(9-(2-(difluoromethoxy)phenyl)-6-hydroxy-6,7,8,9-tetrahydropyrido[4′,3′:4,5]imidazo[1,2-b]pyridazin-2-yl)-N-methylbenzenesulfonamide]	1 to 10
CS(=O)(=O)c1ccc(-c2ccc3nc4c(n3n2)[C@@H](c2ccccc2OC(F)F)NC[C@H]4O)cc1 (racemic) [Example 41, (+/−)-cis-9-(2-(difluoromethoxy)phenyl)-2-(4-(methylsulfonyl)phenyl)-6,7,8,9-tetrahydropyrido[4′,3′:4,5]imidazo[1,2-b]pyridazin-6-ol]	1 to 10
NS(=O)(=O)c1ccc(-c2ccc3nc4c(n3n2)[C@@H](c2ccccc2OC(F)F)NC[C@H]4O)cc1 (racemic) [Example 46, (+/−)-cis-4-(9-(2-(difluoromethoxy)phenyl)-6-hydroxy-6,7,8,9-tetrahydropyrido[4′,3′:4,5]imidazo[1,2-b]pyridazin-2-yl)benzenesulfonamide]	1 to 10
O=C(c1ccc(-c2ccc3nc4c(n3n2)[C@@H](c2ccccc2OC(F)F)NC[C@H]4O)cc1Cl)N1CCOCC1 (racemic) [Example 47, (+/−)-cis-(2-chloro-4-(9-(2-(difluoromethoxy)phenyl)-6-hydroxy-6,7,8,9-tetrahydropyrido[4′,3′:4,5]imidazo[1,2-b]pyridazin-2-yl)phenyl)(morpholino)methanone]	1 to 10
NC(=O)c1ccc(-c2ccc3nc4c(n3n2)[C@@H](c2ccccc2OC(F)F)NC[C@H]4O)cc1Cl (racemic) [Example 48, (+/−)-cis-2-chloro-4-(9-(2-(difluoromethoxy)phenyl)-6-hydroxy-6,7,8,9-tetrahydropyrido[4′,3′:4,5]imidazo[1,2-b]pyridazin-2-yl)benzamide]	10 to 25
COc1ccc(-c2ccc3nc4c(n3n2)[C@H](c2ccccc2OC(F)F)NC[C@H]4O)cn1 (racemic) [Example 51, (+/−)-trans-9-(2-(difluoromethoxy)phenyl)-2-(6-methoxypyridin-3-yl)-6,7,8,9-tetrahydropyrido[4′,3′:4,5]imidazo[1,2-b]pyridazin-6-ol]	10 to 25
CC(C)(O)c1ccc(-c2ccc3nc4c(n3n2)[C@@H](c2cc(Cl)ccc2OC(F)F)NC[C@H]4O)cc1 (racemic) [Example 54, (+/−)-cis-9-(5-chloro-2-(difluoromethoxy)phenyl)-2-(4-(2-hydroxypropan-2-yl)phenyl)-6,7,8,9-tetrahydropyrido[4′,3′:4,5]imidazo[1,2-b]pyridazin-6-ol]	1 to 10
CC(C)(O)c1ccc(-c2ccc3nc4c(n3n2)[C@H](c2cc(Cl)ccc2C(F)(F)F)NC[C@H]4O)cc1 (racemic) [Example 55, (+/−)-trans-9-(5-chloro-2-(trifluoromethyl)phenyl)-2-(4-(2-hydroxypropan-2-yl)phenyl)-6,7,8,9-tetrahydropyrido [4′,3′:4,5]imidazo[1,2-b]pyridazin-6-ol]	1 to 10
COc1ccc(Cl)cc1[C@@H]1NC[C@@H](O)c2nc3ccc(-c4ccc(C(C)(C)O)cc4)nn3c21 (racemic) [Example 56, (+/−)-trans-9-(5-chloro-2-methoxyphenyl)-2-(4-(2-hydroxypropan-2-yl)phenyl)-6,7,8,9-tetrahydropyrido[4′,3′:4,5]imidazo[1,2-b]pyridazin-6-ol]	1 to 10
CC(C)(O)c1ccc(-c2ccc3nc4c(n3n2)[C@H](c2ccccc2OC(F)F)OC[C@H]4O)cc1 (racemic) [Example 57, Rac-(6S,9S)-9-(2-(difluoromethoxy)phenyl)-2-(4-(2-hydroxypropan-2-yl)phenyl)-7,9-dihydro-6H-pyrano[4′,3′:4,5]imidazo[1,2-b]pyridazin-6-ol]	1 to 10
CC(C)(O)c1ncc(-c2ccc3nc4c(n3n2)[C@H](c2ccccc2OC(F)F)OC[C@@H]4O)cn1 (relative stereo) [Example 61, Cis-9-(2-(difluoromethoxy)phenyl)-2-(2-(2-hydroxypropan-2-yl)pyrimidin-5-yl)-6,9-dihydro-7H-pyrano[4′,3′:4,5]imidazo[1,2-b]pyridazin-6-ol]	10 to 25
CC(C)(O)c1ccc(-c2ccc3nc4c(n3n2)[C@H](c2ccccc2OC(F)F)NC[C@H]4O)cc1 [Example 5, (+/−)-Cis and trans-9-(2-(difluoromethoxy)phenyl)-2-(4-(2-hydroxypropan-2-yl)phenyl)-6,7,8,9-tetrahydropyrido[4′,3′:4,5]imidazo[1,2-b]pyridazin-6-ol]	1 to 10
CC(C)(O)c1ccc(-c2ccc3nc4c(n3n2)[C@H](c2ccccc2OC(F)F)NC[C@@H]4O)cc1 [Example 7, Cis-(6S,9S)-9-(2-(difluoromethoxy)phenyl)-2-(4-(2-hydroxypropan-2-yl)phenyl)-6,7,8,9-tetrahydropyrido[4′,3′:4,5]imidazo[1,2-b]pyridazin-6-ol]	1 to 10
CC(C)(O)c1ccc(-c2ccc3nc4c(n3n2)[C@H](c2ccccc2OC(F)F)NC[C@H]4O)cc1 [Example 14, trans-(6R,9S)-9-(2-(difluoromethoxy)phenyl)-2-(4-(2-hydroxypropan-2-yl)phenyl)-6,7,8,9-tetrahydropyrido[4′,3′:4,5]imidazo[1,2-b]pyridazin-6-ol]	1 to 10
CC(C)(O)c1ccc(-c2ccc3nc4c(n3n2)[C@@H](c2ccccc2OC(F)F)NC[C@@H]4O)cc1 [Example 15, trans-(6S,9R)-9-(2-(difluoromethoxy)phenyl)-2-(4-(2-hydroxypropan-2-yl)phenyl)-6,7,8,9-tetrahydropyrido [4′,3′:4,5]imidazo[1,2-b]pyridazin-6-ol]	1 to 10
COc1ccc(-c2ccc3nc4c(n3n2)C(c2ccccc2OC(F)F)NCC4O)cn1 [Example 16, cis-(6R,9S)-9-(2-(difluoromethoxy)phenyl)-2-(6-methoxypyridin-3-yl)-6,7,8,9-tetrahydropyrido[4′,3′:4,5]imidazo[1,2-b]pyridazin-6-ol]	1 to 10

More lines, now with the values ahead:

IC50 [µM]	Structure (SMILES)
1 to 10	O[C@@H]1CN[C@H](c2ccccc2OC(F)F)c2c1nc1ccc(-c3ccc(C4(O)CC4)cc3)nn21 (racemic) [Example 36, (+/−)-cis-9-(2-(difluoromethoxy)phenyl)-2-(4-(1-hydroxycyclopropyl)phenyl)-6,7,8,9-tetrahydropyrido [4′,3′:4,5]imidazo[1,2-b]pyridazin-6-ol]
1 to 10	COc1ccccc1COc1ccc(-c2ccc3nc4c(n3n2)[C@@H](c2ccccc2OC(F)F)NC[C@H]4O)cc1 (racemic) [Example 37, (+/−)-cis-9-(2-(difluoromethoxy)phenyl)-2-(4-((2-methoxybenzyl)oxy)phenyl)-6,7,8,9-tetrahydropyrido[4′,3′:4,5]imidazo[1,2-b]pyridazin-6-ol]
1 to 10	Cc1cc(F)ccc1[C@@H]1NC[C@@H](O)c2nc3ccc(-c4ccc(C(C)(C)O)cc4)nn3c21 (racemic) [Example 38, (+/−)-trans-9-(4-fluoro-2-methylphenyl)-2-(4-(2-hydroxypropan-2-yl)phenyl)-6,7,8,9-tetrahydropyrido[4′,3′:4,5]imidazo[1,2-b]pyridazin-6-ol]
< 1	CC(C)(O)c1ccc(-c2ccc3nc4c(n3n2)[C@@H](c2ccc(F)cc2C(F)(F)F)NC[C@H]4O)cc1 (racemic) [Example 39, (+/−)-cis-9-(4-fluoro-2-(trifluoromethyl)phenyl)-2-(4-(2-hydroxypropan-2-yl)phenyl)-6,7,8,9-tetrahydropyrido[4′,3′:4,5]imidazo[1,2-b]pyridazin-6-ol]
< 1	CC(C)(C)COc1ccc(-c2ccc3nc4c(n3n2)[C@@H](c2ccccc2OC(F)F)NC[C@H]4O)cc1 (racemic) [Example 42, (+/−)-cis-9-(2-(difluoromethoxy)phenyl)-2-(4-(neopentyloxy)phenyl)-6,7,8,9-tetrahydropyrido[4′,3′:4,5]imidazo[1,2-b]pyridazin-6-ol]
< 1	CC(C)(O)c1ccc(-c2ccc3nc4c(n3n2)[C@H](c2ccccc2OC(F)F)OC[C@@H]4O)cc1 (relative stereo) [Example 58, Cis-9-(2-(difluoromethoxy)phenyl)-2-(4-(2-hydroxypropan-2-yl)phenyl)-6,9-dihydro-7H-pyrano[4′,3′:4,5]imidazo[1,2-b]pyridazin-6-ol]
< 1	CC(C)(O)c1ccc(-c2ccc3nc4c(n3n2)C(c2ccccc2OC(F)F)NCC4F)cc1 [Example 12, cis-(1S,4S)-2-(4-(9-(2-(difluoromethoxy)phenyl)-6-fluoro-6,7,8,9-tetrahydropyrido[4′,3′:4,5]imidazo[1,2-b]pyridazin-2-yl)phenyl) propan-2-ol]
< 1	CC(C)(O)c1ccc(-c2ccc3nc4c(n3n2)[C@@H](c2ccccc2OC(F)F)NC[C@H]4F)cc1 [Example 13, cis-(1R,4R)-2-(4-(9-(2-(difluoromethoxy)phenyl)-6-fluoro-6,7,8,9-tetrahydropyrido[4′,3′:4,5]imidazo[1,2-b]pyridazin-2-yl)phenyl)propan-2-ol]
